Results from patent US11339130B1 (Blade Therapeutics, Inc., priority 2016, dated 2022).
Like-named read-outs stand apart in the source and are kept apart here.

Experiments:
Human Calpain 2/NS1 = target: T1, Human Calpain 2/NS1 (Homo sapiens, UniProt P17655); test: Calpain inhibition continuous fluorescence (FRET) assay, Human Calpain 2/NS1; format: biochemical; settings: read-out: Human Calpain 2/NS1 IC50
T1 sequence (P17655 1-700): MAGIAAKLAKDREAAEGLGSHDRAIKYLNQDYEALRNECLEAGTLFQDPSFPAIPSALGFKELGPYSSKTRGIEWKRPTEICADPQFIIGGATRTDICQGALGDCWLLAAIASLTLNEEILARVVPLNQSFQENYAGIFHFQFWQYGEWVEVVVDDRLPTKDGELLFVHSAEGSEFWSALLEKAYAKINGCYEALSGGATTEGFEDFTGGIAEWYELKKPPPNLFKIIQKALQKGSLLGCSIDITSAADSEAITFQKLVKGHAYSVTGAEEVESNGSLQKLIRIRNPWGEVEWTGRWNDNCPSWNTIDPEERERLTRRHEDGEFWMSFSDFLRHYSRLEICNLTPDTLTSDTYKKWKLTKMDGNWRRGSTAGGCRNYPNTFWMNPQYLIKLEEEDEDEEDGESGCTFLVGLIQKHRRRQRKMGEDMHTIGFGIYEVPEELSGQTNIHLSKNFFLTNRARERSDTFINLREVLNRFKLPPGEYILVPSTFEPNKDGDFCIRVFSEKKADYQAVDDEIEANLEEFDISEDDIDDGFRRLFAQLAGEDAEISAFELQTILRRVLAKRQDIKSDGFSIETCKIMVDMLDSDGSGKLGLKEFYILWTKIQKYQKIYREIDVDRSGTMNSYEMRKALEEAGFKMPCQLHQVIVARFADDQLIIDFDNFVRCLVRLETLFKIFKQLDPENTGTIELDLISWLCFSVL
T1 sequence (P04632 1-268 partner): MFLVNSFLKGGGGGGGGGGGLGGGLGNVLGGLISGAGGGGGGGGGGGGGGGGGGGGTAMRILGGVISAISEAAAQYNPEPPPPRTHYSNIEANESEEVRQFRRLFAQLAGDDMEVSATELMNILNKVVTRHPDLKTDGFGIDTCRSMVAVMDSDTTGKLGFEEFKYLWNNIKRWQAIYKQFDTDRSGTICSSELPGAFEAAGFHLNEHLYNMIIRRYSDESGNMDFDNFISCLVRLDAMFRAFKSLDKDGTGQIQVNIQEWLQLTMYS
Outline: (§1)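 Inhibitors were preincubated with calpain in 50 mM Tris pH 7.5, 100 mM NaCl, 1 mM DTT at 25C. Reactions were started with 5-FAM/QXL 520 FRET peptide substrate plus CaCl2 and read at 490/520 nm for 10 min. IC50s came from 4-parameter fits of slope rates (1-5 min).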

Human Calpain 1/NS1 = target: T2, Human Calpain 1/NS1 (Homo sapiens, UniProt P07384); test: Calpain inhibition continuous fluorescence (FRET) assay, Human Calpain 1/NS1; format: biochemical; settings: read-out: Human Calpain 1/NS1 IC50
T2 sequence (P07384 1-714): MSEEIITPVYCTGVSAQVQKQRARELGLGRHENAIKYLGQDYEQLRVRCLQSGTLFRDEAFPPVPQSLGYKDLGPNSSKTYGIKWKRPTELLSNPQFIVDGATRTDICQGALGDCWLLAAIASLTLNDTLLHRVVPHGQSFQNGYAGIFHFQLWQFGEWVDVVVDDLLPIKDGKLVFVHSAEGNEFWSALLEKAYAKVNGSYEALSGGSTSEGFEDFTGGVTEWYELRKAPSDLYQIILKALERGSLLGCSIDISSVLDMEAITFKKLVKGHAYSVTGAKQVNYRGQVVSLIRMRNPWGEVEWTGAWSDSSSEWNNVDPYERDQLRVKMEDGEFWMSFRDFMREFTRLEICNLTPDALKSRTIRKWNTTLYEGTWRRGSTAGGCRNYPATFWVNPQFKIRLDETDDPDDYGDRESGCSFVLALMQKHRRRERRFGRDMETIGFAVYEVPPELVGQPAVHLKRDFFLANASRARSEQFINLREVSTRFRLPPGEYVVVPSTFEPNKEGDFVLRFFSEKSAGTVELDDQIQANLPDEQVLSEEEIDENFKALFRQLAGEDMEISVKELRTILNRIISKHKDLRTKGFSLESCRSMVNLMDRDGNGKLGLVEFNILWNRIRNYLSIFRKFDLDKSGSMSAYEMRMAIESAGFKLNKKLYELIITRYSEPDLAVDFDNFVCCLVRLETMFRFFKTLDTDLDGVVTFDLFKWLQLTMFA
T2 sequence (P04632 1-268 partner): T1 sequence (P04632 1-268 partner)
Outline: as §1

Human Calpain 9/NS1 = target: T3, Human Calpain 9/NS1 (Homo sapiens, UniProt O14815); test: Calpain inhibition continuous fluorescence (FRET) assay, Human Calpain 9/NS1; format: biochemical; settings: read-out: Human Calpain 9/NS1 IC50
T3 sequence (O14815 1-690): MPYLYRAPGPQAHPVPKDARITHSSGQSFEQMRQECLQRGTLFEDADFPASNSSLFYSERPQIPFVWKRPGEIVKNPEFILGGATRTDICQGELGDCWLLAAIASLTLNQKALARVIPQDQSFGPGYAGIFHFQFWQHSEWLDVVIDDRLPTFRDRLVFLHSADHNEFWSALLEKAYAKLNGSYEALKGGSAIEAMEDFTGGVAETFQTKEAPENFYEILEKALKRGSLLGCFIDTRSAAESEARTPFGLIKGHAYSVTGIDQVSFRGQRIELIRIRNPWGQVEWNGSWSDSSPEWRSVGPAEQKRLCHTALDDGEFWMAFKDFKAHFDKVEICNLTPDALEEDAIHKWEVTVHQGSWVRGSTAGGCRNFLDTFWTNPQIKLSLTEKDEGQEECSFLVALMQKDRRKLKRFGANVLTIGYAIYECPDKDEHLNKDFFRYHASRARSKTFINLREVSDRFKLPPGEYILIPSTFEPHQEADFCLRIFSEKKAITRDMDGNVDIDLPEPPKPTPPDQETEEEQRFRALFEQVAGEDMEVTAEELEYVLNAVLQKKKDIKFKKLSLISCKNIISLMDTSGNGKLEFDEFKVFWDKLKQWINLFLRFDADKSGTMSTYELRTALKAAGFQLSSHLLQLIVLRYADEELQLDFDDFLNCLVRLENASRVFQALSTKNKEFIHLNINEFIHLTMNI
T3 sequence (P04632 1-268 partner): T1 sequence (P04632 1-268 partner)
Outline: as §1

[1] = test system: Calpain activity in SH-SY5Y cells; test: SH-SY5Y + AMC fluorescence assay (Suc-LLVY-AMC substrate); format: cell-based
[2] = Column E, read-out: SH-SY5Y + AMC IC50

Row | Compound | IC50 (Human Calpain 2/NS1; Column B) [µM] | IC50 (Human Calpain 1/NS1; Column A) [µM] | IC50 (Human Calpain 9/NS1; Column C) [µM] | IC50 [1, 2] [µM] | IC50 (Human Calpain 2/NS1) [µM] | IC50 (Human Calpain 1/NS1) [µM] | IC50 (Human Calpain 9/NS1) [µM] | IC50 ([1]; read-out: SH-SY5Y + AMC IC50, Column E) [µM]
1 | O=C[C@H](Cc1ccccc1)NC(=O)c1scnc1-c1ccccc1 [Compound 6, (S)—N-(1-oxo-3-phenylpropan-2-yl)-4-phenylthiazole-5-carboxamide] | < 3 | < 3 | < 3 | > 25 |  |  |  | 
2 | O=C[C@H](Cc1ccccc1)NC(=O)c1csnc1-c1ccccc1 [Compound 9, (S)—N-(1-oxo-3-phenylpropan-2-yl)-3-phenylisothiazole-4-carboxamide] | < 3 | < 3 | < 3 | 10 to 25 |  |  |  | 
3 | Cc1nc(-c2ccccc2)c(C(=O)N[C@@H](Cc2ccccc2)C(=O)C(N)=O)s1 [Compound 25, (S)—N-(4-amino-3,4-dioxo-1-phenylbutan-2-yl)-2-methyl-4-phenylthiazole-5-carboxamide] | < 3 | < 3 | < 3 | 10 to 25 |  |  |  | 
4 | Cc1cc(C(=O)N[C@@H](Cc2ccccc2)C(=O)C(N)=O)n(-c2cccc(C(F)(F)F)n2)n1 [Compound 59] | < 3 | < 3 | < 3 | < 10 |  |  |  | 
5 | COC(=O)NCc1cccc(-n2nc(C)cc2C(=O)N[C@@H](Cc2ccccc2)C(=O)C(N)=O)c1 [Compound 140, Methyl (S)-(3-(5-((4-amino-3,4-dioxo-1-phenylbutan-2-yl)carbamoyl)-3-methyl-1H-pyrazol-1-yl)benzyl)carbamate] | < 3 | < 3 | < 3 |  |  |  |  | 10 to 25
6 | Cn1cc(C(=O)N[C@@H](Cc2ccccc2)C(=O)C(N)=O)c(-c2cccc(OC(F)(F)F)c2)n1 [Compound 184, (S)—N-(4-amino-3,4-dioxo-1-phenylbutan-2-yl)-1-methyl-3-(3-(trifluoromethoxy)phenyl)-1H-pyrazole-4-carboxamide] | < 3 | < 3 | < 3 | > 25 |  |  |  | 
7 | Cc1cc(C(=O)N[C@@H](Cc2ccccc2)C(=O)C(=O)NC2CC2)n(-c2nc(-c3ccccc3)cs2)n1 [Compound 203, (S)—N-(4-(cyclopropylamino)-3,4-dioxo-1-phenylbutan-2-yl)-3-methyl-1-(4-phenylthiazol-2-yl)-1H-pyrazole-5-carboxamide] | < 3 | < 3 | > 10 | > 25 |  |  |  | 
8 | (S)—N-(4-amino-1-(3,5-dimethylphenyl)-3,4-dioxobutan-2-yl)-3-methyl-5-phenylisoxazole-4-carboxamide [Compound 98] | < 3 | < 3 | < 3 |  |  |  |  | 

More lines, main results first:

Row | IC50 (Human Calpain 2/NS1; Column B) [µM] | IC50 (Human Calpain 1/NS1; Column A) [µM] | IC50 (Human Calpain 9/NS1; Column C) [µM] | IC50 [1, 2] [µM] | IC50 (Human Calpain 2/NS1) [µM] | IC50 (Human Calpain 1/NS1) [µM] | IC50 (Human Calpain 9/NS1) [µM] | Compound | IC50 ([1]; read-out: SH-SY5Y + AMC IC50, Column E) [µM]
9 | < 3 | < 3 | < 3 | > 25 |  |  |  | Cc1cc(C(=O)N[C@@H](Cc2ccccc2)C(=O)C(N)=O)n(-c2cccc(-c3ccccc3F)c2)n1 [Compound 214, (S)—N-(4-amino-3,4-dioxo-1-phenylbutan-2-yl)-1-(2′-fluoro-[1,1′-biphenyl]-3-yl)-3-methyl-1H-pyrazole-5-carboxamide] | 
10 | < 3 | < 3 | < 3 | > 25 |  |  |  | NC(=O)C(=O)[C@H](Cc1ccccc1)NC(=O)c1cc(Cl)sc1-c1ccccc1 [Compound 271, (S)—N-(4-amino-3,4-dioxo-1-phenylbutan-2-yl)-5-chloro-2-phenylthiophene-3-carboxamide] | 
11 | < 3 | < 3 | < 3 | 10 to 25 |  |  |  | NC(=O)C(=O)[C@H](Cc1ccccc1)NC(=O)c1cc(Cl)nn1-c1ccccc1 [Compound 281, (S)—N-(4-amino-3,4-dioxo-1-phenylbutan-2-yl)-3-chloro-1-phenyl-1H-pyrazole-5-carboxamide] | 
12 |  |  |  |  | < 3 | < 3 | < 3 | Cn1cc(-c2nn(C)cc2C(=O)NC(Cc2ccccc2)C(=O)C(N)=O)cn1 (stereo not shown) [Compound 626, N-(4-amino-3,4-dioxo-1-phenylbutan-2-yl)-1,1′-dimethyl-1H,1′H-[3,4′-bipyrazole]-4-carboxamide] | 
13 |  |  |  |  | < 3 | 3 to 10 | 3 to 10 | Cn1cc(C(=O)NC(Cc2ccccc2)C(=O)C(N)=O)c(C2CCOC2)n1 (stereo not shown) [Compound 627, N-(4-amino-3,4-dioxo-1-phenylbutan-2-yl)-1-methyl-3-(tetrahydrofuran-3-yl)-1H-pyrazole-4-carboxamide] | 
14 |  |  |  |  | < 3 | < 3 | < 3 | Cn1cc(C(=O)NC(Cc2ccccc2)C(=O)C(N)=O)c(-c2coc3ccccc23)n1 (stereo not shown) [Compound 628, N-(4-amino-3,4-dioxo-1-phenylbutan-2-yl)-3-(benzofuran-3-yl)-1-methyl-1H-pyrazole-4-carboxamide] | 
15 |  |  |  |  | < 3 | < 3 | < 3 | NC(=O)C(=O)C(Cc1ccccc1)NC(=O)c1cn(C(F)F)nc1-c1ccc2ccncc2c1 (stereo not shown) [Compound 630, N-(4-amino-3,4-dioxo-1-phenylbutan-2-yl)-1-(difluoromethyl)-3-(isoquinolin-7-yl)-1H-pyrazole-4-carboxamide] | 
16 | < 3 | < 3 | < 3 |  |  |  |  | Cc1cc(C(=O)NC(Cc2ccccc2)C(=O)C(=O)NC2CC2)n(-c2ccncc2)n1 (stereo not shown) [compound 210] | 
17 |  |  |  |  | < 3 | < 3 | 3 to 10 | (S)—N-(4-amino-3,4-dioxo-1-phenylbutan-2-yl)-1-(tert-butyl)-3-methyl-1H-pyrazole-5-carboxamide [Compound 310] | 
18 |  |  |  |  | < 3 | < 3 | 3 to 10 | (S)—N-(4-amino-3,4-dioxo-1-phenylbutan-2-yl)-4-chloro-1-ethyl-3-methyl-1H-pyrazole-5-carboxamide [Compound 312] | 
19 |  |  |  |  | < 3 | < 3 | < 3 | N-(4-amino-3,4-dioxo-1-phenylbutan-2-yl)-3-(isoquinolin-3-yl)-1-methyl-1H-pyrazole-4-carboxamide [Compound 629] | 
